These results are taken from article PMC11391541, “Target-Directed Dynamic Combinatorial Chemistry Affords Binders of Mycobacterium tuberculosis IspE” (ACS Omega, 2024).

One may read the solubility as the dissolved amount per volume that the medium holds. The ΔTm is the shift of the melting midpoint relative to a reference.

Structures are written as SMILES. ≈ marks a conversion by molar mass, not a printed value. Where “and” joins values, the source holds several entries; their conditions need not be identical. Identical values can stand only once. Bounds are passed on as bounds.

A short description of series [1]: physchem. Particulars: aqueous with cosolvent or surfactant or cyclodextrin, kinetic from dmso stock, solubility 5% DMSO in PBS.
Series [2] addresses T1, MtbIspE (Mycobacterium tuberculosis, UniProt P9WKG7). Kind of series: target-directed dynamic combinatorial chemistry (tdDCC), amplification of acylhydrazones in protein-templated vs blank DCL (HPLC-MS/MS, UV 310 nm). In kind it is binding. Particulars: for Amplification factors (DCL-4): DCL-4, 24 h; for Amplification factors (DCL-4) / Amplification factors (DCL-3): 40 mol % MtbIspE; for Amplification factors (DCL-3): DCL-3, 24 h, I1 and K1 integrated as one cluster. The protocol: In this study, we used MtbIspE as target protein and the reversible reaction of hydrazides and aldehydes to form dynamic combinatorial libraries (DCLs) of acylhydrazones. […] To accelerate the reaction at neutral pH, aniline was used as nucleophilic catalyst activating the aldehydes.[2],[4],[19] We analyzed the protein’s effect on the DCLs by comparing HPLC-MS/MS data of blank vs protein-templated (PT) experiments. The experiments spanned 3 days, with periodic sampling (every 2 h, followed by two samples per day after 8 h). The addition of NaOH to raise the pH and halt the reactions ensured the sample composition was preserved for analysis.[19] Templated experiments were conducted in duplicate, and the protein was denatured and removed prior to HPLC-MS/MS analysis.
The tdDCC hits and thus potential MtbIspE binders are amplified in the PT experiment compared to the blank experiment. The first step in the analysis of DCLs is the determination of the equilibrium since the amplification factors need to be calculated when the concentration of products is stable. To determine the evolution of the possible products, it is important to measure the characteristic UV absorbance of the acylhydrazones linker (310 nm) during the HPLC-MS/MS run. The resulting UV peaks are assigned to each product using the MS data (Figures S3–S6). The sum of all peak areas is normalized to 100% in order to obtain the respective relative peak area (RPA) for each product. The RPA values represent relative concentrations, determined at each time point of the blank experiment until the values stabilize. […] However, the rest of the compounds are out of range, making a visual inspection difficult. […] The other three libraries behaved in the same way, reaching equilibrium within 24 h and also maintained stable concentrations beyond (Figures S7–S9). To determine the tdDCC hits, we compared the RPAs of the PT experiments to the blanks at 24 h and set a threshold of at least 50% increase in compound formation. In total, 11 acylhydrazones passed our criteria, with amplification factors ranging from […] to 15.5, qualifying them for resynthesis and further evaluation (Figure 3). During the analysis of chromatograms, challenges arose concerning product identification. Some compound peaks were not neatly separated, forcing us to consider them in clusters, others presented two peaks, likely due to isomers, and were considered separately in our evaluation. Lastly, some compounds were detected by MS, but their respective UV signal interfered with the injection peak or was too low for integration (<1%), both in the blank and PT experiments. Consequently, we excluded these compounds from the analysis (Figure S3–S6).
To a well of a 24-well plate, containing Tris buffer (pH 7.0) were added hydrazides (300 μM each, in DMSO), aldehydes (100 μM each, in DMSO), aniline (20 mM, in DMSO), the protein MtbIspE (25 or 40 μM in Tris buffer at pH 7.0), and an additional amount of DMSO to reach a final concentration of 5% in the DCL with 0.5 mL of end-volume. The DCL was allowed to mix on a plate shaker at room temperature and was frequently monitored via LCMS-MS. For analysis, 30 μL of the corresponding library was mixed with 42 μL acetonitrile and 3 μL of NaOH (1 M), the mixture was centrifuged, and the supernatant was used for the analysis. PT experiments were run in duplicates and the protein was omitted for the blank experiments.
High-resolution mass (HRMS) of final products was determined by HPLC-MS/MS using a Thermo Scientific Q Exactive Focus Orbitrap LC -MS/MS system. All compounds were analyzed for purity by LCMS on Acquity UPLC-SQD system from Waters with a gradient elution of Water (Formic acid 0.1%)/Acetonitrile on an HSS - T3 column (2.1 x 50 mm, Waters), 1.8 µm, at 30°C, PDA detection between 240 -320 nm, and MS detection by simultaneous ES+/ES- ionization in a mass range of 150 -800. The flow is set to 0.9 ml/min, and the […]
gradient time is 1.5 min. […]

In series [3] the test system is EcTolC. Briefly: microbe, parasite or virus in culture. In kind it is cell-based. Particulars: Escherichia coli, 18 h, LB medium, read-out: EcTolC %inh. At 50 μM.
Series [4] in a line: solubility in M. tuberculosis 7H9 growth medium. Particulars: Mtb 7H9 growth medium; for solubility: M. tuberculosis 7H9 growth medium, plasma or biological fluid, kinetic from dmso stock. In kind it is physicochemical. The protocol:
Prior to biological evaluation of the tdDCC hits, we tested their solubility in a standard buffer as well as in M. tuberculosis 7H9 growth medium. […] Regrettably, with 3.3 μM the least soluble compound is E1, making our most amplified and promising compound unsuitable for biological evaluation. We assessed the solubility in Mtb growth medium given that it is a complex, nutrient-rich environment with a distinct solubility profile. However, the trend continued, only seven hits are soluble at 8 μM or above, the remaining five compounds, including E1, were not eligible for antitubercular activity testing (Table 1).
Determination of in vitro anti-tubercular activity and solubility in 7H9 medium Anti-tubercular tests were performed as previously described .1 In brief, 7H9 complete medium (BD Difco; Becton Dickinson, Maryland,USA) supplemented with 10% OADC (BD), 0.2% glycerol, and 0.05% Tween80 as previously described ,3 was used to culture Mycobacterium tuberculosis (Mtb) strain H37Rv (ATCC 25618) carrying a mCherry -expressing plasmid (pCherry10 ).4 Cultures were harvested at mid-log phase and frozen in aliquots at – 80 °C. Prior to testing aliquots were thawed followed by centrifugation and the pellet was resuspended in 7H9 medium with 10% OADC (without glycerol and Tween80). This was further thoroughly resuspended by passing it through a syringe with a 26 -gauge needle to avoid clumping of the bacteria. 2×10^5 CFU (colony forming units) were then cultured in a total volume of 100 μl culture medium (triplicates) to test the non-precipitating compounds for the anti-tubercular activity at the concentrations indicated. For these assays, 96-well flat clear bottom black polystyrene microplates (Corning® CellBIND®, Merck, New York, USA) wer e used. Each plate had Rifampicin (at 1 μg/ml and 0.1 μg/ml) (National Reference Center, Borstel) as a reference compound. Plates were sealed with an air -permeable membrane (Porvair Sciences, Wrexham, UK) in a 37 °C incubator with mild agitation (TiMix5, Edmund Bühler, Germany). The activity of compounds was determined after 7 days by measuring the bacterial growth as relative light units (RLU) from the fluorescence intensity obtained at an excitation wavelength of 575 nm and an emission wavelength of 635 n m in a microplate reader (Synergy 2, BioTek Instruments, Vermont, USA). Two independent experiments (each in triplicates) were performed, and all values were normalized to untreated control sample (100%) in each experiment.
To obtain information regarding the toxicity of our compounds, their impact on the viability of human cells was investigated. HepG2 cells (2x10^4 cells per well) were seeded in 96 -well, flat-bottomed culture plates in 100 µL culture medium (DMEM containing 10% fetal calve serum, 1% penicillin -streptomycin). Twenty-four hours after seeding the cells, medium was removed and replaced by medium containing test compounds in a final DMSO concentration of 1%. Compounds were tested in duplicates at a single concentration or, for CC50 determination, at 8 concentrations that were prepared via 2 -fold serial dilutions in 1% DMSO/medium. Epirubicin and doxorubicin were used as positive controls in serial dilutions starting from 10 µM, and rifampicin was used as a negative control (at 100 µM). The living cell mass was determined 48 h after treatment with compounds by adding 0.1 volumes of 3 -(4,5-dimethylthiazol-2-yl)-2,5-diphenyltetrazolium bromide (MTT) solution (5 mg/mL sterile PBS) (Sigma, St. Louis, MO) to the wells. After incubating the cells for 30 min at 37 °C (atmosphere containing 5% CO2), medium was removed and MTT crystals were dissolved in 75 µL of a solution containing 10% SDS and 0.5% acetic acid in DMSO. The optical density (OD) of the samples was determined photometrically at 570 nm in a PHERAstar Omega plate reader (BMG labtech, Ortenberg, Germany). To obtain percent viability for each sample, their ODs were related to those of DMSO controls. […]

The nature of series [5]: in vitro. The settings on record: human, HepG2 CC50, HepG2, 48 h, MTT.
For series [6], the target named is T1, MtbIspE. Briefly: MtbIspE binding study via MicroScale Thermophoresis (MST). Particulars: MST, 20 μM ligand, 200 nM MtbIspE, triplicate; qualitative.
Series [7] concerns MtbH37Rv. In kind it is cell-based, Mycobacterium tuberculosis.
Series [8] addresses T1, MtbIspE. Briefly: MtbIspE binding study via thermal shift assay. Particulars: read-out: MtbIspE ΔTm at 20 μM.
Series [9] deals with EcK12. Kind of series: E. coli growth inhibition, wild-type strain K12. In kind it is cell-based, Escherichia coli. Particulars: Escherichia coli, 18 h, LB medium, read-out: EcK12 %inh. At 50 μM.

T1 sequence (P9WKG7 whole entry): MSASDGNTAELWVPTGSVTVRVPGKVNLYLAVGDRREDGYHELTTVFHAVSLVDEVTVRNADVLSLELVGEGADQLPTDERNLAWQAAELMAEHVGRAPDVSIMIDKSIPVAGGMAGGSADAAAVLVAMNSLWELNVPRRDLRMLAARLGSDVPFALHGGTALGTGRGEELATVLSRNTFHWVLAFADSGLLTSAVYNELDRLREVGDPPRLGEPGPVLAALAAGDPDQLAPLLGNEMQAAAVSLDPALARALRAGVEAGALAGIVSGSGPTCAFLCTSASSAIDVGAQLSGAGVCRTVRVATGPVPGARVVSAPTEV

As for `Nc1c(C(=O)N/N=C/c2cc(Cl)ccc2O)nnn1-c1cccc(C(F)(F)F)c1` [E1, (E)-5-Amino-N′-(5-chloro-2-hydroxybenzylidene)-1-(3-(trifluoromethyl)phenyl)-1H-1,2,3-triazole-4-carbohydrazide], the solubility at 5 min in series [1] was 3.3 ± 1 µM (≈ 1.4 µg/mL). For the same compound, the “amplification factor (DCL-1 at 24 h)” value in series [2] (DCL-1, 24 h, 25 mol % MtbIspE) was 0.5. Also, the inhibition at 50 µM in series [3] is less than 10%. Besides, in series [4], the “solubility in 7H9” value is given as “insoluble”. Also, the CC50 in series [5] was greater than 50 µM.

`COc1ccc(-c2cc(/C=N/NC(=O)Cn3nc(C)cc3C)no2)cc1` [B6, (E)-2-(3,5-Dimethyl-1H-pyrazol-1-yl)-N′-((5-(4-methoxyphenyl)isoxazol-3-yl)methylene)acetohydrazide]: the concentration in solution in series [1] (solubility at 5 min) came to 65 ± 35 µM (≈ 23 µg/mL). Besides, the “Amplification factors (DCL-4)” value in series [2] is listed as 0.9. For the same compound, the inhibition at 50 µM in series [3] is less than 10%. Further, the solubility in series [4] was 16 µM. The “MtbIspE binding at 20 μM” value in series [6] is “bound in two out of three measurements and 2/3”. The compound further had a CC50 in series [5] greater than 50 µM. The “MtbH37Rv MIC90” value in series [7] was “no inh. at max. sol”. Besides, in series [8], the ΔTm at 20 µM was less than 0.3 °C.

`COc1ccc(NC(=O)c2cc(C(=O)N/N=C/c3cc(Cl)ccc3O)n(C)n2)cc1OC` [H1, (E)-5-(2-(5-Chloro-2-hydroxybenzylidene)hydrazine-1-carbonyl)-N-(3,4-dimethoxyphenyl)-1-methyl-1H-pyrazole-3-carboxamide] came in with a solubility at 5 min in [1] of 28 ± 6 µM (≈ 12.8 µg/mL). The “Amplification factors (DCL-3)” value in series [2] was 7.8. Further, the inhibition at 50 µM in [3] is less than 10%. Also, the solubility in [4] worked out at 32 µM. Further, the “MtbIspE binding at 20 μM” value in [6] is “No”. The compound also displayed a CC50 in series [5] of 32 ± 5 µM. For the same compound, the “MtbH37Rv MIC90” value in series [7] was “no inh. at max. sol”. The ΔTm at 20 µM in series [8] is less than 0.3 °C.

`Nc1c(C(=O)N/N=C/c2ccc(C(F)(F)F)cc2)nnn1-c1cccc(C(F)(F)F)c1` [E4, (E)-5-Amino-N′-(4-(trifluoromethyl)benzylidene)-1-(3-(trifluoromethyl)phenyl)-1H-1,2,3-triazole-4-carbohydrazide]: the solubility at 5 min in series [1] is 12 ± 6 µM (≈ 5.31 µg/mL). For the same compound, in series [2], the “Amplification factors (DCL-4)” value is given as 0.7. For the same compound, the inhibition at 50 µM in series [3] was less than 10%. Also, the “solubility in 7H9” value in series [4] is “insoluble”. Further, in series [6], the “MtbIspE binding at 20 μM” value is “consistently demonstrated binding across all measurements and Yes”. In [5], this compound gave a CC50 greater than 50 µM.

The compound `COc1ccc(-c2cc(/C=N/NC(=O)c3nnn(-c4cccc(C(F)(F)F)c4)c3N)no2)cc1` [E6, (E)-5-Amino-N′-((5-(4-methoxyphenyl)isoxazol-3-yl)methylene)-1-(3-(trifluoromethyl)phenyl)-1H-1,2,3-triazole-4-carbohydrazide] yielded a solubility at 5 min in [1] of 29 ± 10 µM (≈ 13.7 µg/mL). Moreover, in series [2], the “Amplification factors (DCL-4)” value was determined as 2.3. Further, the inhibition at 50 µM in series [3] is less than 10%. In addition, the “solubility in 7H9” value in series [4] is recorded as “insoluble”. For the same compound, the “MtbIspE binding at 20 μM” value in series [6] is on record as “No”. In series [5], this compound displayed a CC50 greater than 50 µM. Also, the shift in melting temperature (ΔTm) at 20 µM in series [8] is 0.7 °C.

Turning to `O=C(N/N=C/c1cc(Cl)ccc1O)C12CC3CC(C1)CC(n1cnc(Cl)n1)(C3)C2` [I1, (1R,3S,5R,7S)-3-(3-Chloro-1H-1,2,4-triazol-1-yl)-N′-((Z)-5-chloro-2-hydroxybenzylidene)adamantane-1-carbohydrazide], the concentration in solution in series [1] (solubility at 5 min) was 8 ± 4 µM (≈ 3.47 µg/mL). Besides, the “Amplification factors (DCL-3)” value in series [2] amounted to 2.0. The inhibition at 50 µM in series [3] was 33 ± 3%; in series [9], less than 10%. In addition, in series [4], the solubility was 64 µM. Moreover, the “MtbH37Rv MIC90” value in series [7] was “no inh. at max. sol”.
